Test system: vWF positive endothelial cells in tumors
Assay: delivery of DY633-labeled peptide to tumors in H460-tumor bearing SCID mice
Format: in vivo, mouse
Conditions: 10 mg/kg i.v. via tail vein, tumors dissected after 1 hour
Experimental: Delivery of the DUF2C5 peptide was tested using synthesized peptide covalently conjugated with DY633 fluorescent probe (Pierce). DY633-DUF2C5 (10 mg/kg body weight), DY633-CT23 or DY633 alone were injected intravenous (i.v.) via tail vein in H460-tumor bearing SCID mice. After 1 hour, tumors were dissected and flash frozen in OCT. Cryosections of tumors were co-stained with vWF to visualize endothelial cells in tumors.

CC[N+](CCCS(=O)(=O)[O-])=c1ccc2c(C=CC=C3N(CCCCCC(=O)O)c4ccc(S(=O)(=O)[O-])cc4C3(C)C)cc(C(C)(C)C)oc-2c1.[Na+] [DY633]
delivery into tumor sites (DY633 label in tumor cryosections): not detected

Source: patent US11299524B2, “KIF13B-derived peptide and method of inhibiting angiogenesis” (THE BOARD OF TRUSTEES OF THE UNIVERSITY OF ILLINOIS, priority 2016, dated 2022)
